Reference: PubChem BioAssay AID256 (DTP/NCI, 2004)
Toxic doses and inconclusive results are not listed. Residues, ends and D or L forms follow the SMILES beside them.

System: CD2F1 mice, L1210 leukemia ip, survival T/C
Assay: NCI In Vivo Anticancer Drug Screen. Data for tumor model L1210 Leukemia (intraperitoneal) in CD2F1 (CDF1) mice
Conditions: higher = longer survival
Procedure, shortened: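 Compound-dosed mice with transplantable tumor versus matched vehicle controls; endpoint ratio T/C reported.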

[1] = endpoint: mean survival time, dose: 100.0 mg/kg/injection, schedule: Q04DX003 (ip), vehicle: saline with Tween-80
[2] = endpoint: mean survival time, dose: 200.0 mg/kg/injection, schedule: Q04DX003 (ip), vehicle: saline with Tween-80
[3] = endpoint: mean survival time, dose: 400.0 mg/kg/injection, schedule: Q04DX003 (ip), vehicle: saline with Tween-80
[4] = endpoint: mean survival time, dose: 100.0 mg/kg/injection, schedule: Q01DX001 (ip), vehicle: saline with Tween-80
[5] = endpoint: mean survival time, dose: 100.0 mg/kg/injection, schedule: Q01DX009 (ip), vehicle: saline with Tween-80
[6] = endpoint: mean survival time, dose: 200.0 mg/kg/injection, schedule: Q01DX001 (ip), vehicle: saline with Tween-80
[7] = endpoint: mean survival time, dose: 400.0 mg/kg/injection, schedule: Q01DX001 (ip), vehicle: saline with Tween-80
[8] = endpoint: mean survival time, dose: 100.0 mg/kg/injection, schedule: Q04DX002 (ip), vehicle: saline with Tween-80
[9] = endpoint: mean survival time, dose: 200.0 mg/kg/injection, schedule: Q04DX002 (ip), vehicle: saline with Tween-80
[10] = endpoint: mean survival time, dose: 400.0 mg/kg/injection, schedule: Q04DX002 (ip), vehicle: saline with Tween-80

CCCCCCCCCCCCCCCC(=O)O[C@@]12C[C@@H](C)[C@@]3(O)[C@@H](C=C(CO)C[C@]4(O)C(=O)C(C)=C[C@@H]34)[C@@H]1C2(C)C
T/C (endpoint: mean survival time, dose: 0.06 mg/kg/injection, schedule: Q01DX009 (ip), vehicle: other): 98 % of control
T/C (endpoint: mean survival time, dose: 0.12 mg/kg/injection, schedule: Q01DX009 (ip), vehicle: saline): 103 % of control
T/C (endpoint: mean survival time, dose: 0.13 mg/kg/injection, schedule: Q01DX009 (ip), vehicle: other): 88 % of control
T/C (endpoint: mean survival time, dose: 0.25 mg/kg/injection, schedule: Q01DX009 (ip), vehicle: other): 94 % of control
T/C (endpoint: mean survival time, dose: 0.25 mg/kg/injection, schedule: Q01DX009 (ip), vehicle: saline): 102 % of control
T/C (endpoint: mean survival time, dose: 0.5 mg/kg/injection, schedule: Q01DX009 (ip), vehicle: other): 102 % of control
T/C (endpoint: mean survival time, dose: 0.5 mg/kg/injection, schedule: Q01DX009 (ip), vehicle: saline): 103 % of control
T/C (endpoint: mean survival time, dose: 1.0 mg/kg/injection, schedule: Q01DX009 (ip), vehicle: saline): 102 % of control

O=C(CCC(=O)c1cccc([N+](=O)[O-])c1)NNc1ccc([N+](=O)[O-])cc1[N+](=O)[O-]
T/C [1]: 98 % of control
T/C [2]: 98 % of control
T/C [3]: 102 % of control

CC(=O)Nc1ncc([N+](=O)[O-])s1
T/C (endpoint: mean survival time, dose: 50.0 mg/kg/injection, schedule: Q04DX003 (ip), vehicle: saline with Tween-80): 100 % of control
T/C [1]: 105 % of control
T/C [2]: 100 % of control

COc1ccc2[nH]c(=O)oc(=O)c2c1
T/C (endpoint: mean survival time, dose: 12.5 mg/kg/injection, schedule: Q01DX009 (ip), vehicle: Klucel (hydroxypropylcellulose) (HPC)): 96 % of control
T/C (endpoint: mean survival time, dose: 25.0 mg/kg/injection, schedule: Q01DX009 (ip), vehicle: Klucel (hydroxypropylcellulose) (HPC)): 102 % of control
T/C (endpoint: mean survival time, dose: 50.0 mg/kg/injection, schedule: Q01DX009 (ip), vehicle: Klucel (hydroxypropylcellulose) (HPC)): 108 % of control
T/C [4]: 96 % of control
T/C (endpoint: mean survival time, dose: 100.0 mg/kg/injection, schedule: Q01DX009 (ip), vehicle: Klucel (hydroxypropylcellulose) (HPC)): 106 % of control
T/C [5]: 104 % of control
T/C [6]: 107 % of control
T/C [7]: 105 % of control

CCOC(=O)C1(C(C)CC)SCCCS1 (stereo not drawn)
T/C [8]: 97 % of control
T/C [9]: 97 % of control
T/C [10]: 94 % of control

NS(=O)(=O)c1ccc(N2CCCCC2)c([N+](=O)[O-])c1
T/C (endpoint: mean survival time, dose: 100.0 mg/kg/injection, schedule: Q01DX009 (ip), vehicle: other): 95 % of control
T/C [8]: 91 % of control
T/C (endpoint: mean survival time, dose: 200.0 mg/kg/injection, schedule: Q01DX009 (ip), vehicle: other): 95 % of control
T/C [9]: 98 % of control
T/C (endpoint: mean survival time, dose: 400.0 mg/kg/injection, schedule: Q01DX009 (ip), vehicle: other): 101 % of control
T/C [10]: 100 % of control

NC(CS)=NCc1ccccc1
T/C (endpoint: mean survival time, dose: 6.25 mg/kg/injection, schedule: Q04DX002 (ip), vehicle: saline): 108 % of control
T/C (endpoint: mean survival time, dose: 12.5 mg/kg/injection, schedule: Q04DX002 (ip), vehicle: saline): 115 % of control
T/C (endpoint: mean survival time, dose: 25.0 mg/kg/injection, schedule: Q04DX002 (ip), vehicle: saline): 101 % of control

c1ccc(C(c2ccccc2)C(c2ccccc2)c2ccccc2)cc1
T/C (endpoint: mean survival time, dose: 18.7 mg/kg/injection, schedule: Q01DX009 (ip), vehicle: saline with Tween-80): 89 % of control
T/C (endpoint: mean survival time, dose: 37.5 mg/kg/injection, schedule: Q01DX009 (ip), vehicle: saline with Tween-80): 89 % of control

CC(C)(O)CCC1CC1CCC(C)(C)O (stereo not drawn)
T/C [1]: 97 % of control
T/C [2]: 89 % of control
T/C [3]: 97 % of control

CCOC(=O)Nc1cc(NCc2ccccc2)c([N+](=O)[O-])c(N)n1
T/C (endpoint: mean survival time, dose: 12.5 mg/kg/injection, schedule: Q01DX001 (ip), vehicle: Klucel (hydroxypropylcellulose) (HPC)): 109 % of control
T/C (endpoint: mean survival time, dose: 25.0 mg/kg/injection, schedule: Q01DX001 (ip), vehicle: Klucel (hydroxypropylcellulose) (HPC)): 101 % of control
T/C (endpoint: mean survival time, dose: 50.0 mg/kg/injection, schedule: Q01DX001 (ip), vehicle: Klucel (hydroxypropylcellulose) (HPC)): 91 % of control

O=C1CSC(=S)N1/N=C/c1cc2c(cc1[N+](=O)[O-])OCO2
T/C (endpoint: mean survival time, dose: 75.0 mg/kg/injection, schedule: Q01DX001 (ip), vehicle: other): 102 % of control
T/C (endpoint: mean survival time, dose: 300.0 mg/kg/injection, schedule: Q01DX001 (ip), vehicle: other): 90 % of control

CN(CC(=O)O)C(=S)c1ccccc1
T/C [1]: 98 % of control
T/C [2]: 104 % of control
T/C [3]: 95 % of control

Cc1ccc(C)c(NC(=O)c2ccc(Cl)cc2)c1
T/C [1]: 97 % of control
T/C [2]: 97 % of control
T/C [3]: 92 % of control

CC(C(=O)O)C1(O)CCCCC1 (stereo not drawn)
T/C (endpoint: mean survival time, dose: 5.0 mg/kg/injection, schedule: Q01DX009 (ip), vehicle: saline with Tween-80): 101 % of control
T/C (endpoint: mean survival time, dose: 10.0 mg/kg/injection, schedule: Q01DX009 (ip), vehicle: saline with Tween-80): 95 % of control
T/C (endpoint: mean survival time, dose: 20.0 mg/kg/injection, schedule: Q01DX009 (ip), vehicle: saline with Tween-80): 90 % of control

CCC1(O)C(=O)OCc2c1cc1n(c2=O)Cc2cc3ccc(C)cc3nc2-1 (stereo not drawn)
T/C (endpoint: median survival time, dose: 10.0 mg/kg/injection, schedule: Q04DX002 (ip), vehicle: saline with Tween-80): 108 % of control

CC/C(=C\c1ccc(Cl)cc1)[N+](=O)[O-]
T/C (endpoint: mean survival time, dose: 12.5 mg/kg/injection, schedule: Q04DX003 (ip), vehicle: Klucel (hydroxypropylcellulose) (HPC)): 102 % of control
T/C (endpoint: mean survival time, dose: 25.0 mg/kg/injection, schedule: Q04DX003 (ip), vehicle: Klucel (hydroxypropylcellulose) (HPC)): 97 % of control
T/C (endpoint: mean survival time, dose: 50.0 mg/kg/injection, schedule: Q04DX003 (ip), vehicle: Klucel (hydroxypropylcellulose) (HPC)): 97 % of control

COc1c(Cl)c(=O)oc2ccc(Cl)cc12
T/C [4]: 93 % of control
T/C [6]: 90 % of control
T/C [7]: 88 % of control

Cc1nc2c(c(-c3ccccc3)n1)Cc1ccccc1O2
T/C (endpoint: mean survival time, dose: 100.0 mg/kg/injection, schedule: Q01DX001 (ip), vehicle: saline): 98 % of control
T/C (endpoint: mean survival time, dose: 200.0 mg/kg/injection, schedule: Q01DX001 (ip), vehicle: saline): 98 % of control
T/C (endpoint: mean survival time, dose: 400.0 mg/kg/injection, schedule: Q01DX001 (ip), vehicle: saline): 101 % of control

CC(=O)NCCNC(C)=O
T/C (endpoint: mean survival time, dose: 100.0 mg/kg/injection, schedule: Q04DX003 (ip), vehicle: saline): 91 % of control
T/C (endpoint: mean survival time, dose: 200.0 mg/kg/injection, schedule: Q04DX003 (ip), vehicle: saline): 100 % of control
T/C (endpoint: mean survival time, dose: 400.0 mg/kg/injection, schedule: Q04DX003 (ip), vehicle: saline): 91 % of control

COc1ccc(Nc2ccccc2Cl)c(C(=O)O)c1
T/C [1]: 98 % of control
T/C [2]: 102 % of control
T/C [3]: 102 % of control

O=C(O[Si](Cc1ccccc1)(Cc1ccccc1)Cc1ccccc1)N(CCCl)CCCl
T/C (endpoint: mean survival time, dose: 6.25 mg/kg/injection, schedule: Q01DX009 (ip), vehicle: distilled water + Tween-80): 109 % of control
T/C (endpoint: mean survival time, dose: 6.25 mg/kg/injection, schedule: Q01DX009 (ip), vehicle: saline with Tween-80): 96 % of control
T/C (endpoint: mean survival time, dose: 12.5 mg/kg/injection, schedule: Q01DX009 (ip), vehicle: saline with Tween-80): 103 % of control
T/C (endpoint: mean survival time, dose: 25.0 mg/kg/injection, schedule: Q01DX009 (ip), vehicle: distilled water + Tween-80): 117 % of control
T/C (endpoint: mean survival time, dose: 25.0 mg/kg/injection, schedule: Q01DX009 (ip), vehicle: saline with Tween-80): 111 % of control
T/C (endpoint: mean survival time, dose: 50.0 mg/kg/injection, schedule: Q01DX009 (ip), vehicle: saline with Tween-80): 121 % of control
T/C [5]: 123 % of control
T/C (endpoint: mean survival time, dose: 200.0 mg/kg/injection, schedule: Q01DX009 (ip), vehicle: distilled water + Tween-80): 91 % of control
T/C (endpoint: mean survival time, dose: 200.0 mg/kg/injection, schedule: Q01DX009 (ip), vehicle: saline with Tween-80): 152 % of control

COC(=O)/C(Br)=C/N(Cc1ccccc1)Cc1ccccc1
T/C (endpoint: mean survival time, dose: 100.0 mg/kg/injection, schedule: Q01DX009 (ip), vehicle: saline sonified): 101 % of control
T/C [1]: 94 % of control
T/C (endpoint: mean survival time, dose: 200.0 mg/kg/injection, schedule: Q01DX009 (ip), vehicle: saline sonified): 101 % of control
T/C [2]: 93 % of control
T/C (endpoint: mean survival time, dose: 400.0 mg/kg/injection, schedule: Q01DX009 (ip), vehicle: saline sonified): 103 % of control
T/C [3]: 96 % of control

CC(C)C(NC(=O)C(NC(=O)C(CCCN=C(N)N)NC(=O)C(N)CCCCN)C(C)C)C(N)=O (stereo not drawn) (H-KRVV-NH2; configuration not given here)
T/C (endpoint: mean survival time, dose: 25.0 mg/kg/injection, schedule: Q01DX009 (ip), vehicle: water): 95 % of control
T/C (endpoint: mean survival time, dose: 50.0 mg/kg/injection, schedule: Q01DX009 (ip), vehicle: water): 100 % of control
T/C (endpoint: mean survival time, dose: 100.0 mg/kg/injection, schedule: Q01DX009 (ip), vehicle: water): 108 % of control
T/C (endpoint: mean survival time, dose: 200.0 mg/kg/injection, schedule: Q01DX009 (ip), vehicle: water): 103 % of control
